ChEMBL document CHEMBL1139428, “Cocrystal structures of primed side-extending alpha-ketoamide inhibitors reveal novel calpain-inhibitor aromatic interactions” (J Med Chem, 2008)
The source made the active and inactive calls. The rule behind the calls is not given here.

Columns and labels:
[1] = target: T1, Calpain-1 catalytic subunit (Homo sapiens) (UniProt P07384); test: Inhibition of calpain 1 protease core assessed as attenuation of substrate cleavage at 50 uM by FRET
T1 sequence (whole entry): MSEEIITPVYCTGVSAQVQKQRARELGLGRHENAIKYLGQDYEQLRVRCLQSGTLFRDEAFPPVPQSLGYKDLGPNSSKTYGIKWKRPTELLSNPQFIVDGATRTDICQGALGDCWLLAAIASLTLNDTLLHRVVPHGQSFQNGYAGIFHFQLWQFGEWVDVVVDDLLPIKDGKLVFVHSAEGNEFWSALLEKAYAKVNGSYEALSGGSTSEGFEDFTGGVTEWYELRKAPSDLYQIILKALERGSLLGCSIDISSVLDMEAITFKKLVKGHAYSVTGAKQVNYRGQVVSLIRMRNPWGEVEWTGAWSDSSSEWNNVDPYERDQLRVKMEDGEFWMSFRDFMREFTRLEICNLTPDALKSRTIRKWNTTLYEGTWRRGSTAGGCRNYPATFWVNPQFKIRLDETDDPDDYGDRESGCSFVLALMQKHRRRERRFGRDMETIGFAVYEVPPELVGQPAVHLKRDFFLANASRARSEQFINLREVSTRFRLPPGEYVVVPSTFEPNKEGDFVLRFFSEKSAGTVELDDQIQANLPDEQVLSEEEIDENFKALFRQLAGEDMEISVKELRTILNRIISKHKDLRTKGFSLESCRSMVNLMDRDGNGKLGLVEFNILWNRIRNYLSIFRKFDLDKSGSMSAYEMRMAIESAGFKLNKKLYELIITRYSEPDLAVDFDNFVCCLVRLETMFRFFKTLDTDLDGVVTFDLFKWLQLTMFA

[2] = target: T2, Calpain-2 catalytic subunit (Homo sapiens) (UniProt P17655); test: Inhibition of m-calpain assessed as attenuation of substrate cleavage at 1 uM by FRET
T2 sequence (whole entry): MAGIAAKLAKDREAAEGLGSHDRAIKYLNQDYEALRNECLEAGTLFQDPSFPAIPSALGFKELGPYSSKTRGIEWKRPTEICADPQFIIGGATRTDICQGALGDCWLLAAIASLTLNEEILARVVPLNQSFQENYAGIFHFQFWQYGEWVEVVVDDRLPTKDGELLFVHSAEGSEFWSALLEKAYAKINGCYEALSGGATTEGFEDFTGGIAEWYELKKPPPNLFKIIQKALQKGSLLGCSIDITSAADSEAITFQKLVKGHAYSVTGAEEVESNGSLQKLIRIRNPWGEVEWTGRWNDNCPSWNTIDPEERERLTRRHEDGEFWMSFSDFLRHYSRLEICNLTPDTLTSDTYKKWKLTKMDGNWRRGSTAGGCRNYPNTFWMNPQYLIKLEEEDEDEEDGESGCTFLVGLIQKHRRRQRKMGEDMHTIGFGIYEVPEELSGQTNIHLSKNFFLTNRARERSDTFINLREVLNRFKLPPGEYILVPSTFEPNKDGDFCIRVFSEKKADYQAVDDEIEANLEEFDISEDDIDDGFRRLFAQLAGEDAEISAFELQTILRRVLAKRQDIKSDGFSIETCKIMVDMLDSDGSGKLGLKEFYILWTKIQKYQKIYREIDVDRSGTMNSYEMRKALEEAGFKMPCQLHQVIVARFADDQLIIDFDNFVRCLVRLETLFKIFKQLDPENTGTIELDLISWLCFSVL

Row | Compound | Activity [1] | Activity [2]
1 | CC[C@H](NC(=O)[C@H](CC(C)C)NC(=O)OCc1ccccc1)C(=O)C(=O)NCCCn1cnc2c(N)ncnc21 | Active | Active
2 | CC[C@H](NC(=O)[C@H](CC(C)C)NC(=O)OCc1ccccc1)C(=O)C(=O)NCCCN1CCN(C)CC1 | Active | Active
